Assay results from patent publication US9738661.
Read-outs that look alike come from different tables or passages of the source.

SMILES: COC(=O)[C@@H]1C[C@@H]2CN1C(=O)[C@H](C(C)(C)C)NC(=O)OCCCCCC=Cc1ccccc1C#CCO2.[C-]#[O+].[C-]#[O+].[C-]#[O+].[C-]#[O+].[C-]#[O+].[C-]#[O+].[Co].[Co]
- ring closure, yield of all isomers (from C=CCCCCCOC(=O)N[C@H](C(=O)N1C[C@H](OCC#Cc2ccccc2C=C)C[C@H]1C(=O)OC)C(C)(C)C.[C-]#[O+].[C-]#[O+].[C-]#[O+].[C-]#[O+].[C-]#[O+].[C-]#[O+].[Co].[Co], rcm bond): 34.5%

SMILES: COC(=O)[C@@H]1C[C@@H]2CN1C(=O)[C@H](C(C)(C)C)NC(=O)OCCCCC/C=C/c1cccnc1O2
- ring closure, yield of all isomers (from C=CCCCCCOC(=O)N[C@H](C(=O)N1C[C@H](Oc2ncccc2C=C)C[C@H]1C(=O)OC)C(C)(C)C, rcm bond, Zhan 1b catalyst, DCM, 5.03 mM, 16.0 h): 92.9%

SMILES: C=C1CCCCCOC(=O)N[C@@H](C2CCCCC2)C(=O)N2C[C@@H](C[C@H]2C(=O)OC)Oc2ccc3ccccc3c21
- ring closure, yield of all isomers (from C=CCCCCCOC(=O)N[C@H](C(=O)N1C[C@H](Oc2ccc3ccccc3c2Br)C[C@H]1C(=O)OC)C1CCCCC1, cc_pd bond, PdCl2(dppf)-DCM, EtOH, 50.3 mM, 78.0 °C, 48.0 h): 52.7%

SMILES: CCCC[C@@H]1NC(=O)OCCCCC=CCc2ccccc2O[C@@H]2C[C@@H](C(=O)OC)N(C2)C1=O
- ring closure, yield of all isomers (from C=CCCCCOC(=O)N[C@@H](CCCC)C(=O)N1C[C@H](Oc2ccccc2CC=C)C[C@H]1C(=O)OC, rcm bond, Zhan 1a catalyst, DCE, 4.9 mM, 83.0 °C, 2.0 h): 100%

SMILES: COC(=O)[C@@H]1C[C@@H]2CN1C(=O)[C@H](C(C)(C)C)NC(=O)O[C@@H]1CCC[C@H]1CCCC=Cc1nc3ccc(OC)cc3cc1O2
- ring closure, yield of all isomers (from C=CCCC[C@@H]1CCC[C@H]1OC(=O)N[C@H](C(=O)N1C[C@H](Oc2cc3cc(OC)ccc3nc2C=C)C[C@H]1C(=O)OC)C(C)(C)C, rcm bond, Zhan catalyst, DCE, 16.0 mM, 90.0 °C, 2.0 h): 84%

SMILES: COC(=O)[C@@H]1C[C@@H]2CN1C(=O)[C@H](C1CCCC1)NC(=O)O[C@@H]1CCC[C@H]1CCCC=Cc1nc3ccccc3cc1O2 (mixture of isomers)
- ring closure, yield of all isomers (from C=CCCC[C@@H]1CCC[C@H]1OC(=O)N[C@H](C(=O)N1C[C@H](Oc2cc3ccccc3nc2C=C)C[C@H]1C(=O)OC)C1CCCC1, rcm bond, Zhan catalyst, DCE, 10.0 mM, 90.0 °C, 1.5 h): 74%

SMILES: COC(=O)[C@@H]1C[C@@H]2CN1C(=O)[C@H](C(C)(C)C)NC(=O)OCCCCC=CCC1CCCCC1OC(=O)N2 (stereo partly shown)
- ring closure, yield of all isomers (from C=CCCCCOC(=O)N[C@H](C(=O)N1C[C@H](NC(=O)OC2CCCCC2CC=C)C[C@H]1C(=O)OC)C(C)(C)C, rcm bond, Zhan 1a catalyst, DCE, 5.0 mM, 83.0 °C, 1.5 h): 49.8%
